According to PubChem BioAssay AID1919005 (Molecular Pharmacology Branch, DTP, NCI, 2023):

Tested on: 855422-203-R-J1-PDC complex spheroid growth
Test: Anticancer human tumor 855422-203-R-J1-PDC patient-derived bladder carcinoma cell line growth inhibition [AhR]
Settings: for IC50: curve of first compound; for viability, T/C: stronger effect = lower value
Summary of the method: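 Agents were dosed in half-log steps down from roughly clinical Cmax, or from 10 microM where Cmax was unknown, alone and with AhR antagonists. Read-out: percent test/control growth of tumor spheroids containing HUVEC and MSC stromal cells.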

[1] = second compound 0.1 µM, first compound 0.00949 µM
[2] = second compound 0.1 µM, first compound 0.03 µM
[3] = second compound 0.1 µM, first compound 0.0949 µM
[4] = second compound 0.1 µM, first compound 0.3 µM
[5] = second compound 0.316 µM, first compound 0.00949 µM
[6] = second compound 0.316 µM, first compound 0.03 µM
[7] = second compound 0.316 µM, first compound 0.0949 µM
[8] = second compound 0.316 µM, first compound 0.3 µM
[9] = second compound 1 µM, first compound 0.00949 µM
[10] = second compound 1 µM, first compound 0.03 µM
[11] = second compound 1 µM, first compound 0.0949 µM
[12] = second compound 1 µM, first compound 0.3 µM
[13] = second compound 3.16 µM, first compound 0.00949 µM
[14] = second compound 3.16 µM, first compound 0.03 µM
[15] = second compound 3.16 µM, first compound 0.0949 µM
[16] = second compound 3.16 µM, first compound 0.3 µM
[17] = second compound 10 µM, first compound 0.00949 µM
[18] = second compound 10 µM, first compound 0.03 µM
[19] = second compound 10 µM, first compound 0.0949 µM
[20] = second compound 10 µM, first compound 0.3 µM
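Note: spheroids exposed to agents for seven days before readout.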
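Throughout, for viability, T/C: percent of DMSO vehicle control luminescence viability.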

Question: Which IC50 (second compound 0.1 µM) does the source give for `CC1COCCN1c1cc(C2(S(C)(=N)=O)CC2)nc(-c2ccnc3[nH]ccc23)n1` (stereo not given) + CC(CO)NC(=O)c1cc(-c2ccc(Cl)cc2)nn(-c2cnn(C)c2)c1=O here?
Answer: > 10000 nM

Question: And the IC50 (second compound 0.316 µM)?
Answer: > 10000 nM

Question: And the IC50 (second compound 1 µM)?
Answer: > 10000 nM

Question: And the IC50 (second compound 3.16 µM)?
Answer: > 10000 nM

Question: And the IC50 (second compound 10 µM)?
Answer: > 10000 nM

Question: And the viability, T/C (second compound 0.1 µM, first compound 0.0316 µM)?
Answer: 90.6%

Question: And the viability, T/C (second compound 0.1 µM, first compound 0.1 µM)?
Answer: 88.8%

Question: And the viability, T/C (second compound 0.1 µM, first compound 0.316 µM)?
Answer: 92.3%

Question: What about the viability, T/C (second compound 0.1 µM, first compound 1 µM) of the same compound?
Answer: 92.9%

Question: And the viability, T/C (second compound 0.1 µM, first compound 3.16 µM)?
Answer: 134%

Question: What about the viability, T/C (second compound 0.1 µM, first compound 10 µM) of the same compound?
Answer: 68.3%

Question: And the viability, T/C (second compound 0.316 µM, first compound 0.0316 µM)?
Answer: 92.2%

Question: What about the viability, T/C (second compound 0.316 µM, first compound 0.1 µM) of the same compound?
Answer: 88.2%

Question: What about the viability, T/C (second compound 0.316 µM, first compound 0.316 µM) of the same compound?
Answer: 95.2%

Question: And the viability, T/C (second compound 0.316 µM, first compound 1 µM)?
Answer: 112%

Question: What about the viability, T/C (second compound 0.316 µM, first compound 3.16 µM) of the same compound?
Answer: 136%

Question: And the viability, T/C (second compound 0.316 µM, first compound 10 µM)?
Answer: 75.4%

Question: What about the viability, T/C (second compound 1 µM, first compound 0.0316 µM) of the same compound?
Answer: 108%

Question: And the viability, T/C (second compound 1 µM, first compound 0.1 µM)?
Answer: 100%

Question: What about the viability, T/C (second compound 1 µM, first compound 0.316 µM) of the same compound?
Answer: 108%

Question: What about the viability, T/C (second compound 1 µM, first compound 1 µM) of the same compound?
Answer: 111%

Question: What about the viability, T/C (second compound 1 µM, first compound 3.16 µM) of the same compound?
Answer: 123%

Question: And the viability, T/C (second compound 1 µM, first compound 10 µM)?
Answer: 60.8%

Question: And the viability, T/C (second compound 3.16 µM, first compound 0.0316 µM)?
Answer: 93.9%

Question: And the viability, T/C (second compound 3.16 µM, first compound 0.1 µM)?
Answer: 98.7%

Question: And the viability, T/C (second compound 3.16 µM, first compound 0.316 µM)?
Answer: 107%

Question: And the viability, T/C (second compound 3.16 µM, first compound 1 µM)?
Answer: 110%

Question: And the viability, T/C (second compound 3.16 µM, first compound 3.16 µM)?
Answer: 123%

Question: What about the viability, T/C (second compound 3.16 µM, first compound 10 µM) of the same compound?
Answer: 58.9%

Question: And the viability, T/C (second compound 10 µM, first compound 0.0316 µM)?
Answer: 98.6%

Question: And the viability, T/C (second compound 10 µM, first compound 0.1 µM)?
Answer: 94.9%

Question: What about the viability, T/C (second compound 10 µM, first compound 0.316 µM) of the same compound?
Answer: 81%

Question: And the viability, T/C (second compound 10 µM, first compound 1 µM)?
Answer: 95.9%

Question: What about the viability, T/C (second compound 10 µM, first compound 3.16 µM) of the same compound?
Answer: 104%

Question: And the viability, T/C (second compound 10 µM, first compound 10 µM)?
Answer: 75.2%

Question: For `Nc1ncn(C2CC(O)C(CO)S2)c(=O)n1` (stereo not given) + CC(CO)NC(=O)c1cc(-c2ccc(Cl)cc2)nn(-c2cnn(C)c2)c1=O, which IC50 (second compound 0.1 µM) is on record?
Answer: > 300 nM

Question: And the IC50 (second compound 0.316 µM)?
Answer: > 300 nM

Question: What about the IC50 (second compound 1 µM) of the same compound?
Answer: > 300 nM

Question: And the IC50 (second compound 3.16 µM)?
Answer: > 300 nM

Question: And the IC50 (second compound 10 µM)?
Answer: > 300 nM

Question: What about the viability, T/C (second compound 0.1 µM, first compound 0.000949 µM) of the same compound?
Answer: 91.9%

Question: And the viability, T/C (second compound 0.1 µM, first compound 0.003 µM)?
Answer: 90.2%

Question: What about the viability, T/C [1] of the same compound?
Answer: 88.3%

Question: And the viability, T/C [2]?
Answer: 93.4%

Question: What about the viability, T/C [3] of the same compound?
Answer: 96.7%

Question: What about the viability, T/C [4] of the same compound?
Answer: 87.4%

Question: What about the viability, T/C (second compound 0.316 µM, first compound 0.000949 µM) of the same compound?
Answer: 97.3%

Question: What about the viability, T/C (second compound 0.316 µM, first compound 0.003 µM) of the same compound?
Answer: 93.3%

Question: What about the viability, T/C [5] of the same compound?
Answer: 99.4%

Question: What about the viability, T/C [6] of the same compound?
Answer: 95.2%

Question: What about the viability, T/C [7] of the same compound?
Answer: 87.6%

Question: What about the viability, T/C [8] of the same compound?
Answer: 82.2%

Question: What about the viability, T/C (second compound 1 µM, first compound 0.000949 µM) of the same compound?
Answer: 99.9%

Question: And the viability, T/C (second compound 1 µM, first compound 0.003 µM)?
Answer: 90.9%

Question: What about the viability, T/C [9] of the same compound?
Answer: 101%

Question: What about the viability, T/C [10] of the same compound?
Answer: 92.1%

Question: What about the viability, T/C [11] of the same compound?
Answer: 101%

Question: What about the viability, T/C [12] of the same compound?
Answer: 86.7%

Question: What about the viability, T/C (second compound 3.16 µM, first compound 0.000949 µM) of the same compound?
Answer: 91.8%

Question: What about the viability, T/C (second compound 3.16 µM, first compound 0.003 µM) of the same compound?
Answer: 94.5%

Question: And the viability, T/C [13]?
Answer: 85.3%

Question: What about the viability, T/C [14] of the same compound?
Answer: 101%

Question: And the viability, T/C [15]?
Answer: 90.9%

Question: What about the viability, T/C [16] of the same compound?
Answer: 80.4%

Question: What about the viability, T/C (second compound 10 µM, first compound 0.000949 µM) of the same compound?
Answer: 92.5%

Question: And the viability, T/C (second compound 10 µM, first compound 0.003 µM)?
Answer: 98%

Question: What about the viability, T/C [17] of the same compound?
Answer: 87.3%

Question: What about the viability, T/C [18] of the same compound?
Answer: 93.5%

Question: And the viability, T/C [19]?
Answer: 89.8%

Question: And the viability, T/C [20]?
Answer: 80.3%

Question: Which results are given for `O=C(C=Cn1cnc(-c2cc(C(F)(F)F)cc(C(F)(F)F)c2)n1)NNc1cnccn1` + CC(CO)NC(=O)c1cc(-c2ccc(Cl)cc2)nn(-c2cnn(C)c2)c1=O?
Answer: IC50 (second compound 0.1 µM): 409 nM; IC50 (second compound 0.316 µM): 279 nM; IC50 (second compound 1 µM): 326 nM; IC50 (second compound 3.16 µM): 274 nM; IC50 (second compound 10 µM): 260 nM; viability, T/C [1]: 106%; viability, T/C [2]: 124%; viability, T/C [3]: 141%; viability, T/C [4]: 55.2%; viability, T/C (second compound 0.1 µM, first compound 0.949 µM): 40.1%; viability, T/C (second compound 0.1 µM, first compound 3 µM): 32.1%; viability, T/C [5]: 112%; viability, T/C [6]: 125%; viability, T/C [7]: 149%; viability, T/C [8]: 44.6%; viability, T/C (second compound 0.316 µM, first compound 0.949 µM): 36.8%; viability, T/C (second compound 0.316 µM, first compound 3 µM): 33%; viability, T/C [9]: 121%; viability, T/C [10]: 136%; viability, T/C [11]: 159%; viability, T/C [12]: 51.1%; viability, T/C (second compound 1 µM, first compound 0.949 µM): 37.8%; viability, T/C (second compound 1 µM, first compound 3 µM): 31.1%; viability, T/C [13]: 108%; viability, T/C [14]: 123%; viability, T/C [15]: 152%; viability, T/C [16]: 43.4%; viability, T/C (second compound 3.16 µM, first compound 0.949 µM): 41.1%; viability, T/C (second compound 3.16 µM, first compound 3 µM): 28.6%; viability, T/C [17]: 100%; viability, T/C [18]: 134%; viability, T/C [19]: 144%; viability, T/C [20]: 39.2%; viability, T/C (second compound 10 µM, first compound 0.949 µM): 33.6%; viability, T/C (second compound 10 µM, first compound 3 µM): 31.1%
